Some test systems named below: HS 578T breast; IGROV1 ovarian; K-562 leukemia; LOX IMVI melanoma; MCF7 breast; MDA-MB-231 breast; MDA-N; NCI-H522 lung; OVCAR-3 ovarian; OVCAR-4 ovarian; SF-295 CNS; SNB-19 CNS; SR leukemia; SW-620 colon; CCRF-CEM leukemia.
Holding throughout (test): growth of human tumour cells (NCI), 48 h

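Each compound was tested at five concentrations against cells in 96-well plates for 48 hours. Definition used: TGI = concentration required for complete inhibition of growth.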

Regarding `COc1cc2c(cc1OC)C1C=NC(C2)c2cc(OC)c(OC)cc21` (configuration not stated), the TGI in the assay on HS 578T breast, in the assay on IGROV1 ovarian, in the assay with K-562 leukemia, in the assay with LOX IMVI melanoma, in the assay on MCF7 breast and in the assay with MDA-MB-231 breast was over 100 µM throughout. Also, the TGI in the assay with MDA-N, with NCI-H522 lung, in the assay on OVCAR-3 ovarian, with OVCAR-4 ovarian, in the assay with SF-295 CNS and in the assay on SNB-19 CNS was over 100 µM in each case. The TGI with SR leukemia and in the assay with SW-620 colon was over 100 µM each time.

For the molecule `CN(C)CCCN1c2ccccc2Sc2ccc3ccccc3c21`, the TGI was determined as 8.2 µM in the assay with CCRF-CEM leukemia; 25.6 µM with HS 578T breast; 23.4 µM with IGROV1 ovarian; 5.56 µM in the assay with K-562 leukemia; 19.8 µM in the assay with LOX IMVI melanoma; 14.9 µM with MCF7 breast. For the same molecule, the TGI with MDA-MB-231 breast was 13.7 µM; in the assay with MDA-N, 15.1 µM; in the assay on NCI-H522 lung it was 22.8 µM; in the assay with OVCAR-3 ovarian, 21.7 µM; in the assay with OVCAR-4 ovarian it was 17.8 µM; in the assay on SF-295 CNS it was 26.3 µM. Further, the TGI in the assay on SNB-19 CNS is 28.8 µM; with SR leukemia, 3.84 µM; in the assay with SW-620 colon, 22.6 µM.

Take `CC1=NN(C(=O)c2ccncc2)C(=O)C1`: the TGI with CCRF-CEM leukemia, with HS 578T breast, with IGROV1 ovarian, with K-562 leukemia, in the assay on LOX IMVI melanoma and with MCF7 breast was over 100 µM each time. Besides, the TGI with MDA-MB-231 breast, in the assay with MDA-N, with NCI-H522 lung, with OVCAR-3 ovarian, in the assay on OVCAR-4 ovarian and with SF-295 CNS was over 100 µM each time. Also, the TGI in the assay with SNB-19 CNS, in the assay on SR leukemia and with SW-620 colon was over 100 µM each time.

For the molecule `CC1=NC(=Cc2cccc(Cl)c2)C(=O)N1n1c(-c2ccccc2)nc2ccccc2c1=O`, the TGI in the assay on CCRF-CEM leukemia is over 100 µM; with HS 578T breast, over 100 µM; in the assay on IGROV1 ovarian, over 100 µM; with K-562 leukemia, over 100 µM; in the assay on LOX IMVI melanoma it was 55.2 µM; in the assay on MCF7 breast it was 55.3 µM. The TGI is over 100 µM in the assay with MDA-MB-231 breast; over 100 µM in the assay on MDA-N; 67.7 µM in the assay on NCI-H522 lung; over 100 µM in the assay on SF-295 CNS; over 100 µM in the assay with SNB-19 CNS; 63.5 µM in the assay with SR leukemia. The molecule further registered a TGI in the assay on SW-620 colon of over 100 µM.

As to `COc1c(Br)cc2c(c1OC)C(Br)CCC(Br)(Br)C2=O` (configuration not stated), the TGI was over 71.7 µM in the assay with HS 578T breast; 5.76 µM in the assay with IGROV1 ovarian; 8.76 µM in the assay on K-562 leukemia; 1.58 µM in the assay with LOX IMVI melanoma; 6.13 µM in the assay on MCF7 breast; 8.32 µM in the assay on MDA-MB-231 breast. Moreover, the TGI with MDA-N came to 0.684 µM; with NCI-H522 lung, 2 µM; in the assay on OVCAR-3 ovarian it was 2.91 µM; with OVCAR-4 ovarian it was 6.87 µM; with SF-295 CNS, 6.77 µM; with SNB-19 CNS it was 14.1 µM. Also, the TGI in the assay on SR leukemia was determined as 1.29 µM; in the assay with SW-620 colon, 1.58 µM.

`CCC1(c2ccccc2)C(=O)N=C(c2ccccc2)N1CCc1ccccc1` (configuration not stated): the TGI with CCRF-CEM leukemia, with HS 578T breast, in the assay on IGROV1 ovarian, in the assay with K-562 leukemia, in the assay with LOX IMVI melanoma and with MCF7 breast was over 100 µM throughout. For the same molecule, the TGI in the assay with MDA-MB-231 breast, in the assay on MDA-N, in the assay on NCI-H522 lung, in the assay on OVCAR-3 ovarian, in the assay on OVCAR-4 ovarian and with SF-295 CNS was over 100 µM throughout. Also, the TGI in the assay on SNB-19 CNS, in the assay on SR leukemia and in the assay with SW-620 colon was over 100 µM throughout.

On to `COc1cc(/C=C/c2nc(NC(=S)Nc3ccccc3)nnc2C)cc(OC)c1OC`, for which the TGI with CCRF-CEM leukemia was 57.7 µM; with HS 578T breast, over 100 µM; in the assay on IGROV1 ovarian it was 93.7 µM; with K-562 leukemia it was 78.2 µM; in the assay with LOX IMVI melanoma, over 100 µM; in the assay on MCF7 breast, over 100 µM. The TGI with MDA-MB-231 breast is over 100 µM; in the assay on MDA-N, over 100 µM; with NCI-H522 lung, 28.4 µM; in the assay with OVCAR-4 ovarian it was 76.4 µM; in the assay on SF-295 CNS, over 100 µM; in the assay with SNB-19 CNS it was over 100 µM. In addition, the TGI in the assay on SR leukemia and with SW-620 colon was over 100 µM throughout.

As to `CS(=O)(=O)OCC1CN(S(C)(=O)=O)c2cc(O)ccc21` (configuration not stated), the TGI was 5.76 µM in the assay with CCRF-CEM leukemia; over 100 µM in the assay with HS 578T breast; 22.4 µM in the assay on IGROV1 ovarian; 10.3 µM in the assay with K-562 leukemia; 13.3 µM in the assay on LOX IMVI melanoma; 26.2 µM in the assay on MCF7 breast. Further, the TGI with MDA-MB-231 breast turned out to be 6.8 µM; in the assay with MDA-N it was 4.52 µM; in the assay with NCI-H522 lung, 2.94 µM; with OVCAR-3 ovarian, 8.27 µM; in the assay with OVCAR-4 ovarian, 7.65 µM; with SF-295 CNS, 14.6 µM. Further, the TGI with SR leukemia was over 100 µM; with SW-620 colon, 28.3 µM.

As for `C=CCC1(OCc2ccccc2)C(=O)C(=O)OC1C1COC(C)(C)O1` (configuration not stated), the TGI with CCRF-CEM leukemia, in the assay with HS 578T breast, in the assay on K-562 leukemia, in the assay on LOX IMVI melanoma, in the assay with MCF7 breast and in the assay with MDA-MB-231 breast was over 100 µM each time. In addition, the TGI in the assay with MDA-N, in the assay with NCI-H522 lung, in the assay on OVCAR-3 ovarian, in the assay with OVCAR-4 ovarian, in the assay on SF-295 CNS and in the assay on SNB-19 CNS was over 100 µM each time. Moreover, the TGI in the assay on SR leukemia and in the assay with SW-620 colon was over 100 µM in each case.

In the case of `CCN(CC)CC1CCCCN1CC(=O)N1c2ccccc2C(=O)Nc2cccnc21` (configuration not stated), the TGI in the assay with CCRF-CEM leukemia was 38.5 µM; in the assay with HS 578T breast it was over 100 µM; in the assay on IGROV1 ovarian, over 100 µM; with LOX IMVI melanoma, 57.2 µM; with MCF7 breast, over 100 µM; in the assay with MDA-MB-231 breast, 75.8 µM. Also, the TGI in the assay on MDA-N, with NCI-H522 lung, in the assay with OVCAR-3 ovarian, with OVCAR-4 ovarian, in the assay with SF-295 CNS and in the assay on SNB-19 CNS was over 100 µM throughout. The TGI in the assay on SR leukemia is 58.1 µM; in the assay with SW-620 colon it was over 100 µM.

The values above are taken from PubChem BioAssay (NCI).
